Data reported in paper PMC2074348, “Preclinical in vivo efficacy of two 9-dihydrotaxane analogues against human and murine tumours” (British Journal of Cancer, 1996).
Values after ≈ are worked out from the molar mass of the structure shown. Where two headings read alike, the source gives them in different places.

How the values were obtained:
[1] = tested on: B16F10; assay: In vitro tumour cell cytotoxicity, colorimetric MTT assay, 72 h; format: cell-based, murine; settings: 72 h exposure
[2] = tested on: BDF mice bearing B16F10 ascites tumours; settings: […]
[3] = tested on: P388; assay: In vitro tumour cell cytotoxicity, colorimetric MTT assay, 72 h; format: cell-based, murine; settings: 72 h exposure
[4] = tested on: HT-29; assay: as above; format: cell-based, human; settings: 72 h exposure
[5] = tested on: murine B16F10 melanoma ascites tumour; assay: In vivo efficacy vs i.p. B16F10 melanoma ascites tumour; settings: for Cure rate at optimal non-toxic dose / Optimal increase in life span (ILS): at non-toxic doses; for %ILS (group mean increase in lifespan) / Per cent cures (mice alive 60 days after inoculation) / Per cent toxicity (mice with premature death) / MST (mean survival time ± s.d.): q.d., i.p., days 1-5 after inoculation, BDF1 mice; for Efficacy against murine B16 ascites tumour compared with paclitaxel: mouse, in vivo
[6] = Pharmacokinetics following i.p. dosing in mice; settings: for t1/2 / Cmax / Tmax / AUC / AUC value (rounded) / Cmax (rounded): 20 mg kg-1 i.p.; for t1/2 / Cmax / Tmax / AUC: male CD-1 mice; for t1/2 / AUC / AUC value (rounded) / Cmax (rounded): plasma; for Cmax / Tmax: plasma (Table VI); for AUC: 0-12 h, trapezoidal (Table VI); for AUC value (rounded) / Cmax (rounded): mice; for Serum concentrations compared with paclitaxel: at equal dosages
[7] = tested on: human MX-1 xenograft solid tumour; settings: for Cure rate / Delay in tumour growth compared with untreated controls: once daily on days 1-5 after inoculation
[8] = tested on: A549, HT-29, B16F10 and P388 tumour cells; assay: In vitro cytotoxicity across the four tumour cell lines, compared with paclitaxel; format: cell-based; settings: human and murine tumour cells
[9] = tested on: murine M109 solid tumour; assay: In vivo efficacy vs subcutaneous M109 solid tumour; settings: for Days (1.0 g): days to reach mean tumour mass = 1.0 g ± s.d. / Delay (1.0 g): delay to reach mean tumour mass = 1.0 g, compared with untreated / Per cent cures (mice with no palpable tumours, day 60) / Per cent toxicity / TWI (per cent tumour weight inhibition when untreated control mean = 1.0 g): q.d., i.p., days 1, 5, 9 after inoculation, s.c. tumour, BDF1 mice; for Optimal dose: i.p. every fourth day for three total injections (days 1, 5, 9 after inoculation); for Delay in solid tumour growth to 1 g: paclitaxel at a non-toxic dose
[10] = tested on: A549; assay: In vitro tumour cell cytotoxicity, colorimetric MTT assay, 72 h; format: cell-based, human; settings: 72 h exposure
[11] = i.p. once daily for 5 consecutive days
[12] = dose 12.5 mg kg-1 per day, q.d., i.p., days 1-5 after inoculation, s.c. xenograft, nude mice
[13] = dose 25 mg kg-1 per day, q.d., i.p., days 1-5 after inoculation, s.c. xenograft, nude mice
[14] = dose 50 mg kg-1 per day, q.d., i.p., days 1-5 after inoculation, s.c. xenograft, nude mice
[15] = dose 100 mg kg-1 per day, q.d., i.p., days 1-5 after inoculation, s.c. xenograft, nude mice

CC(=O)OC12COC1CC(O)C1(C)C(O)C(O)C3=C(C)C(OC(=O)C(O)C(NC(=O)c4ccccc4)c4ccccc4)CC(O)(C(OC(=O)c4ccccc4)C21)C3(C)C (stereo not drawn) [Compound A-86415, 10-deacetyl-9-dihydrotaxol]
IC50 [1]: 39 ng/mL (≈ 0.0479 µM) | MTD (q.d. days 1-5) [2]: greater than 100 mg kg-1 per day | IC50 [3]: 14.0 ng/mL (≈ 0.0172 µM) | IC50 [4]: 1.9 ng/mL (≈ 0.00233 µM) | Cure rate at optimal non-toxic dose [5, 11]: 10% | Optimal increase in life span (ILS) [5, 11]: 83% | %ILS (group mean increase in lifespan) ([5]; dose 25 mg kg-1 per day): 52% | Per cent cures (mice alive 60 days after inoculation) ([5]; dose 25 mg kg-1 per day): 0% | Per cent toxicity (mice with premature death) ([5]; dose 25 mg kg-1 per day): 0% | %ILS (group mean increase in lifespan) ([5]; dose 50 mg kg-1 per day): 83% | MST (mean survival time ± s.d.) ([5]; dose 50 mg kg-1 per day): 36.1 ± 4.5 days | Per cent cures (mice alive 60 days after inoculation) ([5]; dose 50 mg kg-1 per day): 10% | Per cent toxicity (mice with premature death) ([5]; dose 50 mg kg-1 per day): 0% | %ILS (group mean increase in lifespan) ([5]; dose 100 mg kg-1 per day): 77% | Per cent cures (mice alive 60 days after inoculation) ([5]; dose 100 mg kg-1 per day): 0% | Per cent toxicity (mice with premature death) ([5]; dose 100 mg kg-1 per day): 0% | Efficacy against murine B16 ascites tumour compared with paclitaxel [5]: as effective as paclitaxel | t1/2 [6]: 2.8 h | Cmax [6]: 11.19 ig ml-1 | Tmax [6]: 84 min | AUC [6]: 29.81 ig per h ml-1 | AUC value (rounded) [6]: 30 jg h-1 ml-1 | Cmax (rounded) [6]: 11 jg ml-1 | Serum concentrations compared with paclitaxel [6]: less than paclitaxel | Delay (1.0 g) (footnote: delay to reach mean tumour mass = 0.5 g, compared with untreated) [7, 12]: 0 days | Per cent cures (mice with no palpable tumours, day 60) [7, 12]: 20% | Per cent toxicity [7, 12]: 0% | TWI (per cent tumour weight inhibition when untreated control mean = 0.5 g) [7, 12]: 27% | Days to 1.0 g (footnote: days to reach mean tumour mass = 0.5 g ± s.d.) [7, 13]: 33.3 + 7.6 days | Delay (1.0 g) (footnote: delay to reach mean tumour mass = 0.5 g, compared with untreated) [7, 13]: 5.4 days | Per cent cures (mice with no palpable tumours, day 60) [7, 13]: 10% | Per cent toxicity [7, 13]: 0% | TWI (per cent tumour weight inhibition when untreated control mean = 0.5 g) [7, 13]: 73% | Delay (1.0 g) (footnote: delay to reach mean tumour mass = 0.5 g, compared with untreated) [7, 14]: 14.7 days | Per cent cures (mice with no palpable tumours, day 60) [7, 14]: 30% | Per cent toxicity [7, 14]: 0% | TWI (per cent tumour weight inhibition when untreated control mean = 0.5 g) [7, 14]: 99% | Delay (1.0 g) (footnote: delay to reach mean tumour mass = 0.5 g, compared with untreated) [7, 15]: 33.1 days | Per cent cures (mice with no palpable tumours, day 60) [7, 15]: 70% | Per cent toxicity [7, 15]: 0% | TWI (per cent tumour weight inhibition when untreated control mean = 0.5 g) [7, 15]: 100% | Cure rate [7]: 70% | Delay in tumour growth compared with untreated controls [7]: 33 days | In vitro potency compared with paclitaxel [8]: generally less than that of paclitaxel | Days (1.0 g): days to reach mean tumour mass = 1.0 g ± s.d. ([9]; dose 25 mg kg-1 per day): 12.0+0 days | Delay (1.0 g): delay to reach mean tumour mass = 1.0 g, compared with untreated ([9]; dose 25 mg kg-1 per day): 0 days | Per cent cures (mice with no palpable tumours, day 60) ([9]; dose 25 mg kg-1 per day): 0% | Per cent toxicity ([9]; dose 25 mg kg-1 per day): 0% | TWI (per cent tumour weight inhibition when untreated control mean = 1.0 g) ([9]; dose 25 mg kg-1 per day): 10% | Days (1.0 g): days to reach mean tumour mass = 1.0 g ± s.d. ([9]; dose 50 mg kg-1 per day): 12.0+0 days | Delay (1.0 g): delay to reach mean tumour mass = 1.0 g, compared with untreated ([9]; dose 50 mg kg-1 per day): 0 days | Per cent cures (mice with no palpable tumours, day 60) ([9]; dose 50 mg kg-1 per day): 0% | Per cent toxicity ([9]; dose 50 mg kg-1 per day): 0% | TWI (per cent tumour weight inhibition when untreated control mean = 1.0 g) ([9]; dose 50 mg kg-1 per day): 19% | Delay (1.0 g): delay to reach mean tumour mass = 1.0 g, compared with untreated ([9]; dose 100 mg kg-1 per day): 5.1 days | Per cent cures (mice with no palpable tumours, day 60) ([9]; dose 100 mg kg-1 per day): 0% | Per cent toxicity ([9]; dose 100 mg kg-1 per day): 0% | TWI (per cent tumour weight inhibition when untreated control mean = 1.0 g) ([9]; dose 100 mg kg-1 per day): 79% | Optimal dose [9]: 100 mg kg-1 injection | Delay in solid tumour growth to 1 g [9]: 5.1 days | IC50 [10]: 11.0 ng/mL (≈ 0.0135 µM)

CC(=O)O[C@@H]1C2=C(C)[C@@H](OC(=O)[C@H](O)[C@@H](NC(=O)c3ccccc3)c3ccccc3)C[C@@](O)([C@@H](OC(=O)c3ccccc3)[C@@H]3[C@]4(OC(C)=O)CO[C@@H]4C[C@H](O)[C@@]3(C)[C@H]1O)C2(C)C [Compound A-85576, 9-dihydrotaxol]
IC50 [1]: 25 ng/mL (≈ 0.0292 µM) | IC50 [3]: 53.0 ng/mL (≈ 0.0619 µM) | IC50 [4]: 8.0 ng/mL (≈ 0.00935 µM) | Cure rate at optimal non-toxic dose [5, 11]: 0% | Optimal increase in life span (ILS) [5, 11]: 39% | %ILS (group mean increase in lifespan) ([5]; dose 25 mg kg-1 per day): 21% | MST (mean survival time ± s.d.) ([5]; dose 25 mg kg-1 per day): 23.9 ± 4.3 days | Per cent cures (mice alive 60 days after inoculation) ([5]; dose 25 mg kg-1 per day): 0% | Per cent toxicity (mice with premature death) ([5]; dose 25 mg kg-1 per day): 0% | %ILS (group mean increase in lifespan) ([5]; dose 50 mg kg-1 per day): 39% | Per cent cures (mice alive 60 days after inoculation) ([5]; dose 50 mg kg-1 per day): 0% | Per cent toxicity (mice with premature death) ([5]; dose 50 mg kg-1 per day): 0% | %ILS (group mean increase in lifespan) ([5]; dose 100 mg kg-1 per day): 46% | Per cent cures (mice alive 60 days after inoculation) ([5]; dose 100 mg kg-1 per day): 0% | Per cent toxicity (mice with premature death) ([5]; dose 100 mg kg-1 per day): 20% | Optimal dose [5, 11]: 50 mg/kg/day | Efficacy against murine B16 ascites tumour compared with paclitaxel [5]: less effective | t1/2 [6]: 1.9 h | Cmax [6]: 40.32 ig ml-1 | Tmax [6]: 34.8 min | AUC [6]: 75.62 ig per h ml-1 | AUC value (rounded) [6]: over 75 jg h-1 ml-1 | Cmax (rounded) [6]: 40 jg ml-1 | Serum concentrations compared with paclitaxel [6]: greater than paclitaxel | Delay (1.0 g) (footnote: delay to reach mean tumour mass = 0.5 g, compared with untreated) [7, 12]: 1.6 days | Per cent cures (mice with no palpable tumours, day 60) [7, 12]: 0% | Per cent toxicity [7, 12]: 0% | TWI (per cent tumour weight inhibition when untreated control mean = 0.5 g) [7, 12]: 31% | Delay (1.0 g) (footnote: delay to reach mean tumour mass = 0.5 g, compared with untreated) [7, 13]: 5.9 days | Per cent cures (mice with no palpable tumours, day 60) [7, 13]: 0% | Per cent toxicity [7, 13]: 0% | TWI (per cent tumour weight inhibition when untreated control mean = 0.5 g) [7, 13]: 65% | Delay (1.0 g) (footnote: delay to reach mean tumour mass = 0.5 g, compared with untreated) [7, 14]: 12.4 days | Per cent toxicity [7, 14]: 0% | TWI (per cent tumour weight inhibition when untreated control mean = 0.5 g) [7, 14]: 94% | Delay (1.0 g) (footnote: delay to reach mean tumour mass = 0.5 g, compared with untreated) [7, 15]: 21.1 days | Per cent cures (mice with no palpable tumours, day 60) [7, 15]: 60% | Per cent toxicity [7, 15]: 0% | TWI (per cent tumour weight inhibition when untreated control mean = 0.5 g) [7, 15]: 98% | Cure rate [7]: 60% | Delay in tumour growth compared with untreated controls [7]: 21 days | In vitro potency compared with paclitaxel [8]: generally less than that of paclitaxel | Days (1.0 g): days to reach mean tumour mass = 1.0 g ± s.d. ([9]; dose 25 mg kg-1 per day): 13.6+2.3 days | Delay (1.0 g): delay to reach mean tumour mass = 1.0 g, compared with untreated ([9]; dose 25 mg kg-1 per day): 1.6 days | Per cent cures (mice with no palpable tumours, day 60) ([9]; dose 25 mg kg-1 per day): 0% | Per cent toxicity ([9]; dose 25 mg kg-1 per day): 0% | TWI (per cent tumour weight inhibition when untreated control mean = 1.0 g) ([9]; dose 25 mg kg-1 per day): 34% | Days (1.0 g): days to reach mean tumour mass = 1.0 g ± s.d. ([9]; dose 50 mg kg-1 per day): 14.1+3.2 days | Delay (1.0 g): delay to reach mean tumour mass = 1.0 g, compared with untreated ([9]; dose 50 mg kg-1 per day): 2.1 days | Per cent cures (mice with no palpable tumours, day 60) ([9]; dose 50 mg kg-1 per day): 0% | Per cent toxicity ([9]; dose 50 mg kg-1 per day): 0% | TWI (per cent tumour weight inhibition when untreated control mean = 1.0 g) ([9]; dose 50 mg kg-1 per day): 46% | Delay (1.0 g): delay to reach mean tumour mass = 1.0 g, compared with untreated ([9]; dose 100 mg kg-1 per day): 10.5 days | Per cent cures (mice with no palpable tumours, day 60) ([9]; dose 100 mg kg-1 per day): 0% | Per cent toxicity ([9]; dose 100 mg kg-1 per day): 0% | TWI (per cent tumour weight inhibition when untreated control mean = 1.0 g) ([9]; dose 100 mg kg-1 per day): 90% | Optimal dose [9]: 100 mg kg-1 injection | Delay in solid tumour growth to 1 g [9]: 10.5 days | IC50 [10]: 19.0 ng/mL (≈ 0.0222 µM)
